Target: EZH2 (Homo sapiens (Human), UniProt Q15910)
Experiment: PRC2 enzyme assay on peptide substrates
Type: biochemical
Conditions: PRC2 enzyme assays on peptide substrates; 4 nM enzyme, 30 min preincubation at 25° C.; read-out: EZH2 IC50
Source text: General Materials. S-adenosylmethionine (SAM), S-adenosylhomocyteine (SAH), bicine, KCl, Tween20, dimethylsulfoxide (DMSO) and bovine skin gelatin (BSG) were purchased from Sigma-Aldrich at the highest level of purity possible. Dithiothreitol (DTT) was purchased from EMD. ^3H-SAM was purchased from American Radiolabeled Chemicals with a specific activity of 80 Ci/mmol. 384-well streptavidin Flashplates were purchased from PerkinElmer.
Substrates. […] The sequences are listed below.
Recombinant PRC2 Enzymes. Human PRC2 enzymes were purified as 4-component enzyme complexes co-expressed in Spodoptera frugiperda (sf9) cells using a baculovirus expression system. The subunits expressed were wild-type EZH2 (NM_004456) or EZH2 Y641F, N, H, S or C mutants generated from the wild-type EZH2 construct, EED (NM_003797), Suz12 (NM_015355) and RbAp48 (NM_005610). The EED subunit contained an N-terminal FLAG tag that was used to purify the entire 4-component complex from sf9 cell lysates.
General Procedure for PRC2 Enzyme Assays on Peptide Substrates. The assays were all performed in a buffer consisting of 20 mM bicine (pH=7.6), 0.5 mM DTT, 0.005% BSG and 0.002% Tween20, prepared on the day of use. […] DMSO (1 μL) was added to columns 11, 12, 23, 24, rows A-H for the maximum signal control, and SAH, a known product and inhibitor of PRC2 (1 μL) was added to columns 11, 12, 23, 24, rows I-P for the minimum signal control. A cocktail (40 μL) containing the wild-type PRC2 enzyme and H3K27me0 peptide or any of the Y641 mutant enzymes and H3K27me2 peptide was added by Multidrop Combi (Thermo). The compounds were allowed to incubate with PRC2 for 30 min at 25° C., then a cocktail (10 μL) containing a mixture of non-radioactive and ^3H-SAM was added to initiate the reaction (final volume=51 μL). […] The assays were stopped by the addition of non-radioactive SAM (10 μL) to a final concentration of 600 μM, which dilutes the ^3H-SAM to a level where its incorporation into the peptide substrate is no longer detectable. 50 μL of the reaction in the 384-well polypropylene plate was then transferred to a 384-well Flashplate and the biotinylated peptides were allowed to bind to the streptavidin surface for at least 1 h before being washed three times with 0.1% Tween20 in a Biotek ELx405 plate washer. The plates were then read in a PerkinElmer TopCount platereader to measure the quantity of ^3H-labeled peptide bound to the Flashplate surface, measured as disintegrations per minute (dpm) or alternatively, referred to as counts per minute (cpm).
Where dpm=disintegrations per minute, cmpd=signal in assay well, and min and max are the respective minimum and maximum signal controls.
Where top and bottom are the normally allowed to float, but may be fixed at 100 or 0 respectively in a 3-parameter fit. The Hill Coefficient normally allowed to float but may also be fixed at 1 in a 3-parameter fit. Y is the % inhibition and X is the compound concentration.

EZH2, sequence (Q15910 other isoform, or with tags, fused parts or gaps): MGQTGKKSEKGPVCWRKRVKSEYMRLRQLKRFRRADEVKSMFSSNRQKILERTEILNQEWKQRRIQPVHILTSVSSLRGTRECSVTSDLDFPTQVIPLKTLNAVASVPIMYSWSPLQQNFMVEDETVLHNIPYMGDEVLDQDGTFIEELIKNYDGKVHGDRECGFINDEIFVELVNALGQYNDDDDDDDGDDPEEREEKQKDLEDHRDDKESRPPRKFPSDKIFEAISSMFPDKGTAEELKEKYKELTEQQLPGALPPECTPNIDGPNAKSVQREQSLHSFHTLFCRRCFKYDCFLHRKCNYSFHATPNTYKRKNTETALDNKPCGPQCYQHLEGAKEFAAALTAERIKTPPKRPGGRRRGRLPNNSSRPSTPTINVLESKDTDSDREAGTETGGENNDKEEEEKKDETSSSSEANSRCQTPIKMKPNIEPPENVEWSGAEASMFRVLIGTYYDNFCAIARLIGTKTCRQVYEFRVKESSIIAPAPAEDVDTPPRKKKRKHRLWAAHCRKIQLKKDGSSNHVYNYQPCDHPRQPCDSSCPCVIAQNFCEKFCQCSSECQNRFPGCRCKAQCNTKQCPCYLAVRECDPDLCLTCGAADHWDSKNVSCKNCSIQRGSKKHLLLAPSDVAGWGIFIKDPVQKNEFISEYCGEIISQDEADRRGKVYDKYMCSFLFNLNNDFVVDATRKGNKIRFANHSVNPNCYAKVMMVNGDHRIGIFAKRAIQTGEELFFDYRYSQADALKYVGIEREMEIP
EZH2, sequence (O75530 whole entry partner): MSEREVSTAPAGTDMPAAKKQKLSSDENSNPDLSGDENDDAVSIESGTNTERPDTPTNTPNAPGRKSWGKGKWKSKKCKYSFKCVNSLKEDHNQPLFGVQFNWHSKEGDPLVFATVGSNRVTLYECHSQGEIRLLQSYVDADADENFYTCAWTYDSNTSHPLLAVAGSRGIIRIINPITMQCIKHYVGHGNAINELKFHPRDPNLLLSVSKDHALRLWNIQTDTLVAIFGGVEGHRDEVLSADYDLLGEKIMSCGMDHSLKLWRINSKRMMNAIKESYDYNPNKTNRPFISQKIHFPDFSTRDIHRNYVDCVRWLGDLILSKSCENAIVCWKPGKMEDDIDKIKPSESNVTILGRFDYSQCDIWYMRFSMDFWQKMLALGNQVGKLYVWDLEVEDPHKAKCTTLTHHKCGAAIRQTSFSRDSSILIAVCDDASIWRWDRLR
EZH2, sequence (Q15022 whole entry partner): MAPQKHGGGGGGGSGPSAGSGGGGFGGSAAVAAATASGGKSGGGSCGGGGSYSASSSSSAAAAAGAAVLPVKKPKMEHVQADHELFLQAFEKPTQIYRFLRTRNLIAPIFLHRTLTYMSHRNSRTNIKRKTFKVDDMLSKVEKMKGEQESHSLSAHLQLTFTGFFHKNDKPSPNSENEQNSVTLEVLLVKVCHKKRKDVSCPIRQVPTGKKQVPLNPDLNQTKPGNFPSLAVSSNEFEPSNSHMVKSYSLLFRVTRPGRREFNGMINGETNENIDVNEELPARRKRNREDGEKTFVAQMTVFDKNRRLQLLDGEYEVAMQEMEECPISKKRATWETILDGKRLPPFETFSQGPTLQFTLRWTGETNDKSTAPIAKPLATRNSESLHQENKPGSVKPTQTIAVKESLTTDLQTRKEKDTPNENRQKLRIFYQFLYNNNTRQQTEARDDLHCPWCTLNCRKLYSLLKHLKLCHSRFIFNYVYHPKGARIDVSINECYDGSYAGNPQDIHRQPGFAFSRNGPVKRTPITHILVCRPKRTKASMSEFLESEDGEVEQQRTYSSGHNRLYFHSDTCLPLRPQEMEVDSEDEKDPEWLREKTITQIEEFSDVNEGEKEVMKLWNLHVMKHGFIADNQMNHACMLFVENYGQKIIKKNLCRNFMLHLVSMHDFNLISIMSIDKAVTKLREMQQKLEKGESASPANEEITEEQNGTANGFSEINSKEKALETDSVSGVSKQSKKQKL
EZH2, sequence (Q09028 whole entry partner): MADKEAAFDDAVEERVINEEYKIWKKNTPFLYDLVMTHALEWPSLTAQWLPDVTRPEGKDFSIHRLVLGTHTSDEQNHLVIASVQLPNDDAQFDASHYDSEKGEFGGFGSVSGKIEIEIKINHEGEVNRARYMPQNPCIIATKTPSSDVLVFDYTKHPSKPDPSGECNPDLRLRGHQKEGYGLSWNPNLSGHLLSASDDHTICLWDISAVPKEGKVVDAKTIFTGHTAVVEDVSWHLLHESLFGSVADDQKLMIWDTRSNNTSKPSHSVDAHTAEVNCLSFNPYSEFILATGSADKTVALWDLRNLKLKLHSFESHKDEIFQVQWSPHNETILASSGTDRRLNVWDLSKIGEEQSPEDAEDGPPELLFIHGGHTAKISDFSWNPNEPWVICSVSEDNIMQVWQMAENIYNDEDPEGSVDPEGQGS

| SMILES | IC50 [nM] |
| --- | --- |
| Cc1cc(C)c(CNC(=O)c2cc(-c3ccnc(N4CCNCC4)c3)nc3c2cnn3C(C)C)c(=O)[nH]1 [Compound A-37] | 300 to 1000 |
| Cc1cc(COCCCN(C)C)c(CNC(=O)c2cccc3c2cnn3C2CCCC2)c(=O)[nH]1 [Compound D-86] | 3000 to 10000 |
| Cc1cc(C)c(CNC(=O)c2cc(-c3ccc(N)nc3)nc3c2cnn3C(C)C)c(=O)[nH]1 [Compound A-50] | 1000 to 3000 |
| Cc1cc(CN(C)C)c(CNC(=O)c2cc(Br)cc3c2cnn3C2CCCC2)c(=O)[nH]1 [Compound D-17, 6-bromo-1-cyclopentyl-N-((4-((dimethylamino)methyl)-6-methyl-2-oxo-1,2-dihydropyridin-3-yl)methyl)-1H-indazole-4-carboxamide] | < 300 |
| Cc1cc(C)c(CNC(=O)c2cc(C3=CCN(C(=O)C(O)CN)CC3)nc3c2cnn3C(C)C)c(=O)[nH]1 (centres unmarked) [Compound B-70] | 300 to 1000 |
| CC(=O)N1CC(n2ncc3c(C(=O)NCc4c(C)cc(C)[nH]c4=O)cc(Br)cc32)C1 [Compound D-35] | 1000 to 3000 |
| Cc1cc(C)c(CNC(=O)c2cc(N3CCC(N4CCN(C)CC4)CC3)nc3c2cnn3C(C)C)c(=O)[nH]1 [Compound B-106] | 1000 to 3000 |
| Cc1cc(C)c(CNC(=O)c2cc(C3=CCN(C4CCNCC4)CC3)nc3c2cnn3C(C)C)c(=O)[nH]1 [Compound B-38] | 300 to 1000 |
| Cc1cc(C)c(CNC(=O)c2cc(C3=CCNCC3)nc3c2cnn3C(C)C)c(=O)[nH]1 [Compound B-60] | 300 to 1000 |
| Cc1cc(CN(C)CCCN(C)C)c(CNC(=O)c2cc(Br)cc3c2cnn3C2CCCC2)c(=O)[nH]1 [Compound D-62] | 300 to 1000 |
| Cc1cc(C)c(CNC(=O)c2cc(C3=CC(C)(C)NC(C)(C)C3)nc3c2cnn3C)c(=O)[nH]1 [Compound B-153] | 10000 to 50000 |
| C=Cc1cc(C(=O)NCc2c(C)cc(C)[nH]c2=O)c2cnn(C(C)C)c2n1 [Compound B-97] | 1000 to 3000 |
| CCc1nn(C(C)C)c2nc(C3=CC(C)(C)NC(C)(C)C3)cc(C(=O)NCc3c(C)cc(C)[nH]c3=O)c12 [Compound B-26, N-((4,6-dimethyl-2-oxo-1,2-dihydropyridin-3-yl)methyl)-3-ethyl-1-isopropyl-6-(2,2,6,6-tetramethyl-1,2,3,6-tetrahydropyridin-4-yl)-1H-pyrazolo[3,4-b]pyridine-4-carboxamide] | 300 to 1000 |
| Cc1cc(C)c(CNC(=O)c2cc(C3CCN(CCCN(C)C)CC3)cc3c2cnn3C2CCCC2)c(=O)[nH]1 [Compound D-30] | < 300 |
| Cc1cc(C)c(CNC(=O)c2cc(C3=CCN(C(=O)[C@@H](N)CO)CC3)nc3c2cnn3C(C)C)c(=O)[nH]1 [Compound B-66] | 300 to 1000 |
| Cc1cc(C)c(CNC(=O)c2cc(C3=CCN(C(=O)C4CCN(C)C4)CC3)nc3c2cnn3C(C)C)c(=O)[nH]1 (centres unmarked) [Compound B-31, N-((4,6-dimethyl-2-oxo-1,2-dihydropyridin-3-yl)methyl)-1-isopropyl-6-(1-(1-methylpyrrolidine-3-carbonyl)-1,2,3,6-tetrahydropyridin-4-yl)-1H-pyrazolo[3,4-b]pyridine-4-carboxamide] | < 300 |
| Cc1cc(C)c(CNC(=O)c2cc(-c3ccc(CN4CCOCC4)cc3Cl)cc3c2cnn3C2CCCC2)c(=O)[nH]1 [Compound C-32] | < 300 |
| Cc1cc(C)c(CNC(=O)c2cc(N(C)CCCN(C)C)nc3c2cnn3C(C)C)c(=O)[nH]1 [Compound B-91] | 1000 to 3000 |
| CCc1ccc(CNC(=O)c2cc(-c3ccc4c(c3)OCCO4)nc3c2cnn3C(C)C)c(=O)[nH]1 [Compound A-110] | 10000 to 50000 |

| SMILES | IC50 [nM] |
| --- | --- |
| Cc1cc(C)c(CNC(=O)c2cc(-c3ccc(CN(C)CCCN(C)C)cc3)nc3c2cnn3C(C)C)c(=O)[nH]1 [Compound A-15, N-((4,6-dimethyl-2-oxo-1,2-dihydropyridin-3-yl)methyl)-6-(4-(((3-(dimethylamino)propyl)(methyl)amino)methyl)phenyl)-1-isopropyl-1H-pyrazolo[3,4-b]pyridine-4-carboxamide] | < 300 |
| Cc1cc(CN2CCN(C)CC2)c(CNC(=O)c2cc(Br)cc3c2cnn3C2CCCC2)c(=O)[nH]1 [Compound D-63] | 300 to 1000 |
| Cc1cc(C)c(CNC(=O)c2cc(C3CCN(C(=O)[C@H](C)N)CC3)nc3c2cnn3C(C)C)c(=O)[nH]1 [Compound B-105] | 1000 to 3000 |
| CCc1cc(C)[nH]c(=O)c1CNC(=O)c1cc(C2=CC(C)(C)NC(C)(C)C2)nc2c1cnn2C(C)C [Compound B-25, N-((4-ethyl-6-methyl-2-oxo-1,2-dihydropyridin-3-yl)methyl)-1-isopropyl-6-(2,2,6,6-tetramethyl-1,2,3,6-tetrahydropyridin-4-yl)-1H-pyrazolo[3,4-b]pyridine-4-carboxamide] | < 300 |
| Cc1cc(C)c(CNC(=O)c2cc(C3=CCN(C(=O)CN(C)C)CC3)nc3c2cnn3C(C)C)c(=O)[nH]1 [Compound B-53] | 300 to 1000 |
| Cc1cc(CN(C)C)c(CNC(=O)c2cc(-c3ccc(CN4CCOCC4)cc3)nc3c2cnn3C(C)C)c(=O)[nH]1 [Compound A-43] | 300 to 1000 |
| Cc1cc(C)c(CNC(=O)c2cc(-c3ccc(CN4CCOCC4)nc3)cc3c2cnn3C2CCCC2)c(=O)[nH]1 [Compound C-2, 1-cyclopentyl-N-((4,6-dimethyl-2-oxo-1,2-dihydropyridin-3-yl)methyl)-6-(6-(morpholinomethyl)pyridin-3-yl)-1H-indazole-4-carboxamide] | < 300 |
| Cc1cc(C)c(CNC(=O)c2cc(C3CCN(C)CC3)nc3c2cnn3C(C)C)c(=O)[nH]1 [Compound B-73] | 300 to 1000 |
| Cc1cc(C)c(CNC(=O)c2cc(C3=CC(C)(C)NC(C)(C)C3)nc3c2cnn3CCO)c(=O)[nH]1 [Compound B-146] | 10000 to 50000 |
| CCC(=O)N1CCC(n2ncc3c(C(=O)NCc4c(C)cc(C)[nH]c4=O)cc(Br)cc32)CC1 [Compound D-55] | 300 to 1000 |
| Cc1cc(C)n(C)c(=O)c1CNC(=O)c1cc(-c2cccc(CN(C)CCN(C)C)c2)nc2c1CNN2C(C)C [Compound A-74] | 10000 to 50000 |
| Cc1cc(C)c(CNC(=O)c2cc(-c3ccc(CN4CCOCC4)c(Cl)c3)cc3c2cnn3C2CCCC2)c(=O)[nH]1 [Compound C-28] | < 300 |
| Cc1cc(C)c(CNC(=O)c2cc(C3=CCN(C(=O)C4CNC4)CC3)cc3c2cnn3C2CCCC2)c(=O)[nH]1 [Compound D-37] | < 300 |
| Cc1cc(C)c(CNC(=O)c2cc(C3=CCN(C(=O)C4CNC4)CC3)nc3c2cnn3C(C)C)c(=O)[nH]1 [Compound B-30, 6-(1-(azetidine-3-carbonyl)-1,2,3,6-tetrahydropyridin-4-yl)-N-((4,6-dimethyl-2-oxo-1,2-dihydropyridin-3-yl)methyl)-1-isopropyl-1H-pyrazolo[3,4-b]pyridine-4-carboxamide] | < 300 |
| Cc1cc(C)c(CNC(=O)c2cc(C3=CCN(C(=O)C4CCCNC4)CC3)nc3c2cnn3C(C)C)c(=O)[nH]1 (centres unmarked) [Compound B-28, N-((4,6-dimethyl-2-oxo-1,2-dihydropyridin-3-yl)methyl)-1-isopropyl-6-(1-(piperidine-3-carbonyl)-1,2,3,6-tetrahydropyridin-4-yl)-1H-pyrazolo[3,4-b]pyridine-4-carboxamide] | < 300 |
| CC(=O)N1CCC(n2ncc3c(C(=O)NCc4c(C)cc(C)[nH]c4=O)cc(C4=CC(C)(C)NC(C)(C)C4)nc32)CC1 [Compound B-2, 1-(1-acetylpiperidin-4-yl)-N-((4,6-dimethyl-2-oxo-1,2-dihydropyridin-3-yl)methyl)-6-(2,2,6,6-tetramethyl-1,2,3,6-tetrahydropyridin-4-yl)-1H-pyrazolo[3,4-b]pyridine-4-carboxamide] | 300 to 1000 |
| Cc1cc(C)c(CNC(=O)c2cc(C3=CC(C)(C)NC(C)(C)C3)nc3c2cnn3C2COC2)c(=O)[nH]1 [Compound B-15, N-((4,6-dimethyl-2-oxo-1,2-dihydropyridin-3-yl)methyl)-1-(oxetan-3-yl)-6-(2,2,6,6-tetramethyl-1,2,3,6-tetrahydropyridin-4-yl)-1H-pyrazolo[3,4-b]pyridine-4-carboxamide] | 300 to 1000 |
| Cc1cc(C)c(CNC(=O)c2cc(N(C)C)nc3c2cnn3C(C)C)c(=O)[nH]1 [Compound B-136] | 3000 to 10000 |
| Cc1cc(C)c(CNC(=O)c2cc(C3CCN(C(=O)CO)CC3)nc3c2cnn3C(C)C)c(=O)[nH]1 [Compound B-85] | 300 to 1000 |

Reference: US9637472B2, “Substituted 6,5-fused bicyclic heteroaryl compounds” (Epizyme, Inc., priority 2011, dated 2017)
